Each structure is given as a SMILES string.

This is an account of results in US20210078988A1, “MODULATORS OF INDOLEAMINE 2,3-DIOXYGENASE” (GLAXOSMITHKLINE INTELLECTUAL PROPERTY DEVELOPMENT LIMITED, priority 2017, published 2021).

In this assay the target is T1, indoleamine 2, 3-dioxygenase (IDO1) (Homo sapiens, UniProt P14902).
T1 construct: human peripheral blood mononuclear cells (PBMC) (PB003F; host or cells: human PBMC stimulated with IFN-gamma and LPS
T1 sequence (P14902 whole entry): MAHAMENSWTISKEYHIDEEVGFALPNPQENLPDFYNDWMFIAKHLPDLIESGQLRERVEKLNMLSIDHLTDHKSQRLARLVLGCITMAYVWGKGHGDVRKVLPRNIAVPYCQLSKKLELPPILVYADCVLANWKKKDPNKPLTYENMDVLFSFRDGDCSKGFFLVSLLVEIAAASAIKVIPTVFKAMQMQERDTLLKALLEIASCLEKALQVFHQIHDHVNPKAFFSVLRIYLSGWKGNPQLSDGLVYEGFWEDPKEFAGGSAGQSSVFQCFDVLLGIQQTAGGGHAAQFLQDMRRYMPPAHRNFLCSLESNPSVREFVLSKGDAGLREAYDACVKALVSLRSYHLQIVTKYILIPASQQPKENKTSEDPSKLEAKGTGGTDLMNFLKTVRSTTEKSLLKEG
Put plainly: PBMC IDO1 assay (kynurenine detection via mass spectrometry). In kind it is cell-based. To be noted: human PBMC stimulated with IFN-γ and LPS, 2 days, kynurenine by mass spectrometry; read-out: IDO1 PBMC pIC50 (converted). The method, then: Compounds of the present invention were tested via high-throughput cellular assays utilizing detection of kynurenine via mass spectrometry and cytotoxicity as end-points. For the mass spectrometry and cytotoxicity assays, human peripheral blood mononuclear cells (PBMC) (PB003F; AIICells®, Alameda, Calif.) were stimulated with human interferon-γ (IFN-γ) (Sigma-Aldrich Corporation, St. Louis, Mo.) and lipopolysaccharide from Salmonella minnesota (LPS) (Invivogen, San Diego, Calif.) to induce the expression of indoleamine 2, 3-dioxygenase (IDO1). Compounds with IDO1 inhibitory properties decreased the amount of kynurenine produced by the cells via the tryptophan catabolic pathway. Cellular toxicity due to the effect of compound treatment was measured using CellTiter-Glo® reagent (CTG) (Promega Corporation, Madison, Wis.), which is based on luminescent detection of ATP, an indicator of metabolically active cells.
In preparation for the assays, test compounds were serially diluted 3-fold in DMSO from a typical top concentration of 5 mM and plated at 0.5 μL in 384-well, polystyrene, clear bottom, tissue culture treated plates with lids (Greiner Bio-One, Kremsmunster, Austria) to generate 11-point dose response curves. Low control wells (0% kynurenine or 100% cytotoxicity) contained either 0.5 μL of DMSO in the presence of unstimulated (-IFN-γ/-LPS) PBMCs for the mass spectrometry assay or 0.5 μL of DMSO in the absence of cells for the cytotoxicity assay, and high control wells (100% kynurenine or 0% cytotoxicity) contained 0.5 μL of DMSO in the presence of stimulated (+IFN-γ/+LPS) PBMCs for both the mass spectrometry and cytotoxicity assays.
Frozen stocks of PBMCs were washed and recovered in RPMI 1640 medium (Thermo Fisher Scientific, Inc., Waltham, Mass.) supplemented with 10% v/v heat-inactivated fetal bovine serum (FBS) (Thermo Fisher Scientific, Inc., Waltham, Mass.), and 1× penicillin-streptomycin antibiotic solution (Thermo Fisher Scientific, Inc., Waltham, Mass.). The cells were diluted to 1,000,000 cells/mL in the supplemented RPMI 1640 medium. 50 μL of either the cell suspension, for the mass spectrometry assay, or medium alone, for the cytotoxicity assay, were added to the low control wells, on the previously prepared 384-well compound plates, resulting in 50,000 cells/well or 0 cells/well respectively. IFN-γ and LPS were added to the remaining cell suspension at final concentrations of 100 ng/ml and 50 ng/ml respectively, and 50 μL of the stimulated cells were added to all remaining wells on the 384-well compound plates. The plates, with lids, were then placed in a 37° C., 5% CO2 humidified incubator for 2 days.
Following incubation, the 384-well plates were removed from the incubator and allowed to equilibrate to room temperature for 30 minutes. For the cytotoxicity assay, CellTiter-Glo® was prepared according to the manufacturer's instructions, and 40 μL were added to each plate well. After a twenty minute incubation at room temperature, luminescence was read on an EnVision® Multilabel Reader (PerkinElmer Inc., Waltham, Mass.). For the mass spectrometry assay, 10 μL of supernatant from each well of the compound-treated plates were added to 40 μL of acetonitrile, containing 10 μM of an internal standard for normalization, in 384-well, polypropylene, V-bottom plates (Greiner Bio-One, Kremsmunster, Austria) to extract the organic analytes. Following centrifugation at 2000 rpm for 10 minutes, 10 μL from each well of the acetonitrile extraction plates were added to 90 μL of sterile, distilled H2O in 384-well, polypropylene, V-bottom plates for analysis of kynurenine and the internal standard on the RapidFire 300 (Agilent Technologies, Santa Clara, Calif.) and 4000 QTRAP MS (SCIEX, Framingham, Mass.). MS data were integrated using Agilent Technologies' RapidFire Integrator software, and data were normalized for analysis as a ratio of kynurenine to the internal standard. […]
Turning to `CC(C)CC(CC1CCN(C(=O)OC(C)(C)C)CC1)NC(=O)c1ccc(Br)cc1` (stereo not shown) [Example 27, tert-butyl 4-(2-(4-bromobenzamido)-4-methylpentyl)piperidine-1-carboxylate], the IC50 was 10 nM.

For `CC(C)CC(CC1CCN(C(=O)OC(C)(C)C)CC1)NC(=O)c1ccc(Br)s1` (stereo not shown) [Example 28, tert-butyl 4-(2-(5-bromothiophene-2-carboxamido)-4-methylpentyl)piperidine-1-carboxylate], the IC50 is 7.94 nM.

With `COc1ccc([C@H](CC2CCN(C(=O)OC(C)(C)C)CC2)NC(=O)c2ccc(Br)s2)cn1` [Example 29, tert-butyl (S)-4-(2-(5-bromothiophene-2-carboxamido)-2-(6-methoxypyridin-3-yl)ethyl)piperidine-1-carboxylate], the IC50 is 1.58 nM. With `CCc1ccc(C(=O)N[C@@H](CC2CCN(C(=O)OC(C)(C)C)CC2)c2ccccc2)s1` [Example 30, tert-butyl (S)-4-(2-(5-ethylthiophene-2-carboxamido)-2-phenylethyl)piperidine-1-carboxylate] the figure was 10 nM; with `CC(C)(C)OC(=O)N1CCC(CC(NC(=O)c2ccc(Br)s2)C2CCCCC2)CC1` (stereo not shown) [Example 31, tert-butyl 4-(2-(5-bromothiophene-2-carboxamido)-2-cyclohexylethyl)piperidine-1-carboxylate], 7.94 nM; with `CC(C)OC(=O)N1CCC(C[C@H](NC(=O)c2ccc(Cl)cc2)c2ccccc2)CC1` [Example 32, isopropyl (S)-4-(2-(4-chlorobenzamido)-2-phenylethyl)piperidine-1-carboxylate], 10 nM.

With `CCc1ccc(C(=O)N[C@@H](CC2CCN(C(=O)OC(C)C)CC2)c2ccccc2)s1` [Example 33, isopropyl (S)-4-(2-(5-ethylthiophene-2-carboxamido)-2-phenylethyl)piperidine-1-carboxylate], the IC50 is 7.94 nM. On to `C=CC[C@H](CC1CCN(C(=O)OC(C)(C)C)CC1)NC(=O)c1ccc(Cl)s1` [Example 34, tert-butyl (R)-4-(2-(5-chlorothiophene-2-carboxamido)pent-4-en-1-yl)piperidine-1-carboxylate], for which the IC50 was 3.98 nM. Under `CC(C)CC(CC1CCN(C(=O)Oc2ccccc2)CC1)NC(=O)c1ccc(Cl)s1` (stereo not shown) [Example 35, phenyl 4-(2-(5-chlorothiophene-2-carboxamido)-4-methylpentyl)piperidine-1-carboxylate] stands 6.31 nM; under `COc1ccc([C@H](CC2CCN(C(=O)Oc3ccccc3)CC2)NC(=O)c2ccc(Cl)s2)cn1` [Example 36, phenyl (S)-4-(2-(5-chlorothiophene-2-carboxamido)-2-(6-methoxypyridin-3-yl)ethyl)piperidine-1-carboxylate], 1.58 nM; under `COc1ccc([C@H](CC2CCN(C(=O)Oc3ccccc3)CC2)NC(=O)c2ccc(Cl)cc2)cn1` [Example 37, phenyl (S)-4-(2-(4-chlorobenzamido)-2-(6-methoxypyridin-3-yl)ethyl)piperidine-1-carboxylate], 2.51 nM. With `C[C@H](CC1CCN(C(=O)OC(C)(C)C)CC1)NC(=O)c1ccc(Cl)s1` [Example 38, tert-butyl (R)-4-(2-(5-chlorothiophene-2-carboxamido)propyl)piperidine-1-carboxylate] the figure was 5.01 nM; with `COc1ccc([C@H](CC2CCN(C(=O)CC(C)(C)C)CC2)NC(=O)c2ccc(Cl)s2)cn1` [Example 39, (S)-5-chloro-N-(2-(1-(3,3-dimethylbutanoyl)piperidin-4-yl)-1-(6-methoxypyridin-3-yl)ethyl)thiophene-2-carboxamide], 5.01 nM; with `COc1ccc([C@H](CC2CCN(C(=O)NC(C)(C)C)CC2)NC(=O)c2ccc(Cl)s2)cn1` [Example 40, (S)-N-(tert-butyl)-4-(2-(5-chlorothiophene-2-carboxamido)-2-(6-methoxypyridin-3-yl)ethyl)piperidine-1-carboxamide], 3.98 nM. Under `COc1ccc([C@H](CC2CCN(S(=O)(=O)CC(C)C)CC2)NC(=O)c2ccc(Cl)s2)cn1` [Example 41, (S)-5-chloro-N-(2-(1-(isobutylsulfonyl)piperidin-4-yl)-1-(6-methoxypyridin-3-yl)ethyl)thiophene-2-carboxamide] stands 3.98 nM.

Take `C[C@H](CC1CCN(C(=O)Oc2ccccc2)CC1)NC(=O)c1ccc(Cl)s1` [Example 42, phenyl (R)-4-(2-(5-chlorothiophene-2-carboxamido)propyl)piperidine-1-carboxylate]: the IC50 is 5.01 nM.

Consider `COc1ccc([C@H](CC2CCN(C(=O)C(F)(F)c3ccccc3)CC2)NC(=O)c2ccc(Cl)s2)cn1` [Example 43, (S)-5-chloro-N-(2-(1-(2,2-difluoro-2-phenylacetyl)piperidin-4-yl)-1-(6-methoxypyridin-3-yl)ethyl)thiophene-2-carboxamide], for which the IC50 was 1 nM.

In the case of `CCN(CC)c1nnc(C(CC2CCN(C(=O)OC(C)(C)C)CC2)NC(=O)c2ccc(Cl)s2)o1` (stereo not shown) [Example 44, tert-butyl 4-(2-(5-chlorothiophene-2-carboxamido)-2-(5-(diethylamino)-1,3,4-oxadiazol-2-yl)ethyl)piperidine-1-carboxylate], the IC50 is 3.16 nM. On to `CCOC(=O)N1CCC(CC(NC(=O)c2ccc(Cl)s2)c2nnc(N(CC)CC)o2)CC1` (stereo not shown) [Example 45, ethyl 4-(2-(5-chlorothiophene-2-carboxamido)-2-(5-(diethylamino)-1,3,4-oxadiazol-2-yl)ethyl)piperidine-1-carboxylate], for which the IC50 is 3.16 nM.

As for `Cc1ccc(C(=O)NC(CC2CCN(C(=O)OC(C)(C)C)CC2)C(C)C)s1` (stereo not shown) [Example 46, tert-butyl 4-(3-methyl-2-(5-methylthiophene-2-carboxamido)butyl)piperidine-1-carboxylate], the IC50 was 3.98 nM. `CCC(CC)c1nc(C(CC2CCN(C(=O)OC(C)(C)C)CC2)NC(=O)c2ccc(Cl)s2)no1` (stereo not shown) [Example 47, tert-butyl 4-(2-(5-chlorothiophene-2-carboxamido)-2-(5-(pentan-3-yl)-1,2,4-oxadiazol-3-yl)ethyl)piperidine-1-carboxylate]: the IC50 is 3.98 nM. In the case of `CCN(CC)c1nnc(C(CC2CCN(C(=O)OC(C)(C)C)CC2)NC(=O)c2ccc(C)s2)o1` (stereo not shown) [Example 48, tert-butyl 4-(2-(5-(diethylamino)-1,3,4-oxadiazol-2-yl)-2-(5-methylthiophene-2-carboxamido)ethyl)piperidine-1-carboxylate], the IC50 is 3.98 nM. With `CCc1ccc(C(=O)NC(CC2CCN(C(=O)OC(C)(C)C)CC2)C(C)C)s1` (stereo not shown) [Example 49, tert-butyl 4-(2-(5-ethylthiophene-2-carboxamido)-3-methylbutyl)piperidine-1-carboxylate] the figure was 6.31 nM; with `CCN(c1nnc(C(CC2CCN(C(=O)OC(C)(C)C)CC2)NC(=O)c2ccc(C)s2)o1)C1CC1` (stereo not shown) [Example 50, tert-butyl 4-(2-(5-(cyclopropyl(ethyl)amino)-1,3,4-oxadiazol-2-yl)-2-(5-methylthiophene-2-carboxamido)ethyl)piperidine-1-carboxylate], 6.31 nM; with `Cc1ccc(C(=O)NC(CC2CCN(C(=O)Oc3ccccc3)CC2)c2ccccc2)s1` (stereo not shown) [Example 51, phenyl 4-(2-(5-methylthiophene-2-carboxamido)-2-phenylethyl)piperidine-1-carboxylate], 7.94 nM.
